Source: ChEMBL document CHEMBL1128756, “The discovery of CP-96,021 and CP-96,486, balanced, combined, potent and orally active leukotriene D4 (LTD4)/platelet activating factor (PAF) receptor antagonists” (Bioorg Med Chem Lett, 1995)

What was measured:
[1] = molecular target: T1, Cysteinyl leukotriene receptor 1 (Cavia porcellus, UniProt Q2NNR5); test: Displacement of [3H]leukotriene D4 (LTD4) from receptor in guinea pig lung membranes; format: cell membranes, Membrane
T1 sequence (Q2NNR5 whole entry): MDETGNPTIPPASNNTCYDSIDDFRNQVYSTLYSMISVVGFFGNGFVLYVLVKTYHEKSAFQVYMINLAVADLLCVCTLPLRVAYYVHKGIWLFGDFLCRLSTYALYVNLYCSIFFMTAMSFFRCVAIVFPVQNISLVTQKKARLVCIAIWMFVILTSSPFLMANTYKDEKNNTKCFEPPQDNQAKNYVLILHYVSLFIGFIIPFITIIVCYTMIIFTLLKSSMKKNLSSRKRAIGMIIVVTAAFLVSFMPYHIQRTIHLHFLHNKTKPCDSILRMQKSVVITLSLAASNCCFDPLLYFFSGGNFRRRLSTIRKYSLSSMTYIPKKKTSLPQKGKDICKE

[2] = Inhibitory concentration against 5-hydroxytryptamine 1 receptor
[3] = molecular target: Serotonin 2 (5-HT2) receptor (Homo sapiens, UniProt P41595+P28223+P28335); test: Inhibitory concentration against 5-hydroxytryptamine 2 receptor; format: protein assay
[4] = molecular target: T2, Adenosine receptor A1 (Homo sapiens, UniProt P30542); test: Inhibitory concentration against Adenosine A1 receptor
T2 sequence (P30542 whole entry): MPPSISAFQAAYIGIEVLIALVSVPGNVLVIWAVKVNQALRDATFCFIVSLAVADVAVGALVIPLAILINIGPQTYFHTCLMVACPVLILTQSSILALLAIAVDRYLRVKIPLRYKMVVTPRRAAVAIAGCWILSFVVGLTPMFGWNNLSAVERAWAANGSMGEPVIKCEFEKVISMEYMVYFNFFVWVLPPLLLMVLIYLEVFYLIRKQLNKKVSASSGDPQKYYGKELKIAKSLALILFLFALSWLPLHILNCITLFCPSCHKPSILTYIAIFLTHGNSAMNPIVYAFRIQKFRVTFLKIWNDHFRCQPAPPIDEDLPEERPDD

[5] = molecular target: T3, Adrenergic receptor alpha-1 (Homo sapiens, UniProt P35348+P25100+P35368); test: Inhibitory concentration against Alpha-1 adrenergic receptor; format: protein assay
T3 sequence (P35348 whole entry): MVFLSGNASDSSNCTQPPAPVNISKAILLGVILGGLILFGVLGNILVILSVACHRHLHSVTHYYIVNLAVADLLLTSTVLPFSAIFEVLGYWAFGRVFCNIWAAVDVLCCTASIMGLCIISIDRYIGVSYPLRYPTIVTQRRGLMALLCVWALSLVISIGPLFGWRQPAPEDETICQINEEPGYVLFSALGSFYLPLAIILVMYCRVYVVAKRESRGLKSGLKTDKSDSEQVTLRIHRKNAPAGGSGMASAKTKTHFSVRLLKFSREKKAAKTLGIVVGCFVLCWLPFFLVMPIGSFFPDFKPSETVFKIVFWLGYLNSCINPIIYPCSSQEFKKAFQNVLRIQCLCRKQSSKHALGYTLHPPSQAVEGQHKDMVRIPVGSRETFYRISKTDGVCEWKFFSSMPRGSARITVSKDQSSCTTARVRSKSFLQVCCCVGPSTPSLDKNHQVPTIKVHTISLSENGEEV
T3 sequence (P25100 whole entry): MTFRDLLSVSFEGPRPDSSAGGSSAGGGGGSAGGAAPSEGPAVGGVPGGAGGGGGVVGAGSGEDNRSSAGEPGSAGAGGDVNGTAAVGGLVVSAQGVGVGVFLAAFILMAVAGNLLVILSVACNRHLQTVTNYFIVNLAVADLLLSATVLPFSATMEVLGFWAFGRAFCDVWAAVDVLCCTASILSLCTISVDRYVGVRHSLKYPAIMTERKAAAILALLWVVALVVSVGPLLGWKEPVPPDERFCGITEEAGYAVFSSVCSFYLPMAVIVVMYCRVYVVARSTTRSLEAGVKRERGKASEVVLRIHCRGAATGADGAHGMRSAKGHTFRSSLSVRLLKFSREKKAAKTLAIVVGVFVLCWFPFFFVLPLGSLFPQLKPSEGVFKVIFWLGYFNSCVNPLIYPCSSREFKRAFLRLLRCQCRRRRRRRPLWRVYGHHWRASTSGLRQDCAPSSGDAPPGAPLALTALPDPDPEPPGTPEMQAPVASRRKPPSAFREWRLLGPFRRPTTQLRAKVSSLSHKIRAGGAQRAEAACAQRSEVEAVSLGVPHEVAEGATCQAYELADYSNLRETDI
T3 sequence (P35368 whole entry): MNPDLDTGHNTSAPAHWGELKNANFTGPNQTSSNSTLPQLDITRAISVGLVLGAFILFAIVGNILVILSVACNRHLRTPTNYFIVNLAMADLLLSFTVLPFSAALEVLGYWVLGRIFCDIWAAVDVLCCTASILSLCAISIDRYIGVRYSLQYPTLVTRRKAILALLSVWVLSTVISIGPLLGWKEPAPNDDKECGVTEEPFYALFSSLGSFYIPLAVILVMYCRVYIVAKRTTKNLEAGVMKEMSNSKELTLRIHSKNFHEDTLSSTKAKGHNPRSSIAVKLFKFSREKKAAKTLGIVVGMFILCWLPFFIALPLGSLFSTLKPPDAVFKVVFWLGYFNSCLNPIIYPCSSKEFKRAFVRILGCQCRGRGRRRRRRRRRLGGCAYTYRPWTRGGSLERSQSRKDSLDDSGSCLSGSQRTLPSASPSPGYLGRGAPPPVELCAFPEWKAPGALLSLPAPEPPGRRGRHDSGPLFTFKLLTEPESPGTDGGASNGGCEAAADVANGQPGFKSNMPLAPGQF

[6] = molecular target: Adrenergic receptor beta (Homo sapiens, UniProt P08588+P07550+P13945); test: Inhibitory concentration against Beta adrenergic receptor; format: protein assay
[7] = molecular target: D(2) dopamine receptor (Homo sapiens, UniProt P14416); test: Inhibitory concentration against Dopamine receptor D2
Sequence of D(2) dopamine receptor (P14416 whole entry): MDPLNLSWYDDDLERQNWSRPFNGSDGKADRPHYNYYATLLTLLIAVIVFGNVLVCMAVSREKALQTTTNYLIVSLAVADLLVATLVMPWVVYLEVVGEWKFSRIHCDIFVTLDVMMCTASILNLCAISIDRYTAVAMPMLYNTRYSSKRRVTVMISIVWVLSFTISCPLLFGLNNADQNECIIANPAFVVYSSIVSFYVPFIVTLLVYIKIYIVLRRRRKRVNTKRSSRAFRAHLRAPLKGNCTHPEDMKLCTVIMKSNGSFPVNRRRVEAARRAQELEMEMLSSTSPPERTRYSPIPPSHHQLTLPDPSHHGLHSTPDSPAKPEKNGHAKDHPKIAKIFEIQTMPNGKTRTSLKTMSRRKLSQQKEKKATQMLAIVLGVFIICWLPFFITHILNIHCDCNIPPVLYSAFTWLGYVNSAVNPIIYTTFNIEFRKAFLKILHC

[8] = test system: Cavia porcellus; test: Combined airway obstructive effect against LTD4 stimulated by aerosolized antigen challenge in guinea pigs after peroral administration; format: functional
[9] = molecular target: GABA-A receptor; anion channel; test: Inhibition of Gamma-aminobutyric acid receptor; format: protein-complex assay
[10] = test system: Cavia porcellus; test: In vivo bronchoprotective effect against LTD4 induced bronchoconstriction in guinea pigs after intravenous administration; format: functional
[11] = test system: Cavia porcellus; test: In vivo bronchoprotective effect against PAF induced bronchoconstriction in guinea pigs after intravenous administration; format: functional
[12] = molecular target: Histamine H1 receptor (Homo sapiens, UniProt P35367); test: Inhibitory concentration against H1 receptor
Sequence of Histamine H1 receptor (P35367 whole entry): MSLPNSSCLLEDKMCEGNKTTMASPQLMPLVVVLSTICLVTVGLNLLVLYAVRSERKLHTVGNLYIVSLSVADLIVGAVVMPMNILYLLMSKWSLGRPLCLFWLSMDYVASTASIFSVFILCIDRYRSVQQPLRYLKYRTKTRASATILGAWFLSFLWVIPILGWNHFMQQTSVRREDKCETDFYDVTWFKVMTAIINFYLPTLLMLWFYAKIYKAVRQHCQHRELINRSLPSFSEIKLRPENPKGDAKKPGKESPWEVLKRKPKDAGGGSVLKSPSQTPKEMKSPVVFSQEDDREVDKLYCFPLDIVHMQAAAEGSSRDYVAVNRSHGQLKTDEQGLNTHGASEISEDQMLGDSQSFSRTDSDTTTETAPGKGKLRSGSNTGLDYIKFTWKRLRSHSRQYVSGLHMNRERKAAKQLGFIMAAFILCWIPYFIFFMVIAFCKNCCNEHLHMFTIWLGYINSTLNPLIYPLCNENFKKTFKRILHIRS

[13] = molecular target: T1, Cysteinyl leukotriene receptor 1; test: Displacement of [3H]LTD4 from receptor in guinea pig lung membranes; format: cell membranes, Membrane
[14] = molecular target: Muscarinic acetylcholine receptor; test: Inhibitory concentration against muscarinic receptor; format: protein assay
[15] = molecular target: Mu-type opioid receptor (Homo sapiens, UniProt P35372); test: Inhibitory concentration against Opioid receptor mu 1
Sequence of Mu-type opioid receptor (P35372 whole entry): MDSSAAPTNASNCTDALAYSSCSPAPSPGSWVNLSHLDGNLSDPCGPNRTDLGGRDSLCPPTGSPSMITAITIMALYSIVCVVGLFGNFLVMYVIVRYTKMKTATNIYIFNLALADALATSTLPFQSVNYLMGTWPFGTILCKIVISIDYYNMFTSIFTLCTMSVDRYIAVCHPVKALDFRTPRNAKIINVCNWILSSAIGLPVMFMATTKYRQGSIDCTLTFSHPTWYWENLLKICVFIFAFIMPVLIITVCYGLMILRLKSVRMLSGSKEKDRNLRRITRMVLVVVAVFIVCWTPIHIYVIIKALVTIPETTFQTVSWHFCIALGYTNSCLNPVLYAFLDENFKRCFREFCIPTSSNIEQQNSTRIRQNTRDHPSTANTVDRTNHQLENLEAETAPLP

[16] = molecular target: T4, Adrenergic receptor alpha-2 (Homo sapiens, UniProt P08913+P18825+P18089); test: Inhibitory concentration against Alpha-2 adrenergic receptor; format: protein assay
T4 sequence (P08913 whole entry): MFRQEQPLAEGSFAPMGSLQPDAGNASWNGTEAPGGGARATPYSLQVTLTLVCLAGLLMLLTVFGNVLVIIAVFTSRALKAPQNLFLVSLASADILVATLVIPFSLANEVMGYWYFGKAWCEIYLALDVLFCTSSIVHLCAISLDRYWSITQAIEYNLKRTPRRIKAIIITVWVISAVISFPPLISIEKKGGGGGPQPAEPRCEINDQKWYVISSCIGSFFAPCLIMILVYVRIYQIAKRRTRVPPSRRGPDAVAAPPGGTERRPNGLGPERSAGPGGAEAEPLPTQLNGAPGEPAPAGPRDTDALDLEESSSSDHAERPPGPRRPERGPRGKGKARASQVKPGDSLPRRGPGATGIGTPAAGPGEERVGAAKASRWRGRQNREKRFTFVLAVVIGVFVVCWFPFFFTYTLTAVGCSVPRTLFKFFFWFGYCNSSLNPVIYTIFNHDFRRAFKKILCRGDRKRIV
T4 sequence (P18825 whole entry): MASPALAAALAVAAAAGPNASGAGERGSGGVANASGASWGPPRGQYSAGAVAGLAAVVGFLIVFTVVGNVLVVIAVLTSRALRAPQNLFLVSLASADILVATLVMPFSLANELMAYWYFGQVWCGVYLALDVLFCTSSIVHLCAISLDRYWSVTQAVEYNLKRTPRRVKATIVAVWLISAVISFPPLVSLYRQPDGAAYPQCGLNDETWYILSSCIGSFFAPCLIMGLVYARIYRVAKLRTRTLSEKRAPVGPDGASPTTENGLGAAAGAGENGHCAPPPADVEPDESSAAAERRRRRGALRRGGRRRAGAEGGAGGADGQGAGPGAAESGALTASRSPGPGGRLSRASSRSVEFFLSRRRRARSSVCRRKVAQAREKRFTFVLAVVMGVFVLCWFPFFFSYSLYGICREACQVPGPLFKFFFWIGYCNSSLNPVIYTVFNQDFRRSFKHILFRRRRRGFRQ
T4 sequence (P18089 whole entry): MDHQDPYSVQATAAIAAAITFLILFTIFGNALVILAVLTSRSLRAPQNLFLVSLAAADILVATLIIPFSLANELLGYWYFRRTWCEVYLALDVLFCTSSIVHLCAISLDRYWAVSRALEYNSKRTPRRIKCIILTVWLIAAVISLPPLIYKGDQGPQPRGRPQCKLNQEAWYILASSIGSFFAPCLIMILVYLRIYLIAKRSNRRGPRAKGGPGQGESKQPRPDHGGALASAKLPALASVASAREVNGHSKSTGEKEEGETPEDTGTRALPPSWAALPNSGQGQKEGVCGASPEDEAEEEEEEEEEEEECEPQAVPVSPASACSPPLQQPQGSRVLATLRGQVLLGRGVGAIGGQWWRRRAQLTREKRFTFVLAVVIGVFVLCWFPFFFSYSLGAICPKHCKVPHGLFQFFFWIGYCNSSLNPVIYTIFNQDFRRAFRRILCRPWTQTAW

[17] = test system: Cavia porcellus; test: In vivo bronchoprotective effect against […] induced bronchoconstriction in guinea pigs after intravenous administration; format: functional

Row | SMILES | Ki [1] [µM] | IC50 [2] [µM] | IC50 [3] [µM] | IC50 [4] [µM] | IC50 [5] [µM] | IC50 [6] [µM] | IC50 [7] [µM] | IC50 [9] [µM] | IC50 [12] [µM] | Ki [13] [µM] | IC50 [14] [µM] | IC50 [15] [µM] | IC50 [16] [µM] | ED50 [8] [mg/kg] | ED50 [10] [mg/kg] | ED50 [11] [mg/kg] | ED50 [17] [mg/kg]
1 | Cc1nc2cnccc2n1-c1ccc(OCc2cccc(/C=C/c3nc4cc(F)ccc4s3)c2)cc1 | 0.034 | > 10 | > 10 | > 10 | > 10 | > 10 | > 10 | > 10 | > 10 | – | > 10 | > 10 | > 10 | 1.8 | 0.46 | – | 0.16
2 | COc1cc(C(=O)NS(=O)(=O)c2ccccc2C)ccc1Cc1cn(C)c2ccc(NC(=O)OC3CCCC3)cc12 [ZAFIRLUKAST] | – | – | – | > 10 | > 10 | > 10 | > 10 | > 10 | – | – | – | > 10 | – | 3.5 | 0.21 | – | –

Continued, in another order:

Row | Ki [1] [µM] | IC50 [2] [µM] | IC50 [3] [µM] | IC50 [4] [µM] | IC50 [5] [µM] | IC50 [6] [µM] | IC50 [7] [µM] | IC50 [9] [µM] | IC50 [12] [µM] | Ki [13] [µM] | IC50 [14] [µM] | IC50 [15] [µM] | IC50 [16] [µM] | SMILES | ED50 [8] [mg/kg] | ED50 [10] [mg/kg] | ED50 [11] [mg/kg] | ED50 [17] [mg/kg]
3 | 0.073 | – | – | – | – | – | – | – | – | – | – | – | – | Cc1nc2cnccc2n1-c1ccc(OCc2cccc(/C=C/c3ccc4ccccc4n3)c2)cc1 | – | – | – | –
4 | – | > 10 | > 10 | > 10 | > 10 | > 10 | > 10 | > 10 | > 10 | 0.02 | > 10 | > 10 | > 10 | Cc1nc2cnccc2n1-c1ccc(OCc2cccc(/C=C/c3ccc4ccc(Cl)cc4n3)c2)cc1 | 1.7 | 0.27 | 0.26 | –
5 | > 30 | – | – | – | – | – | – | – | – | – | – | – | – | CCOC(=O)C1=C(c2ccc(-n3c(C)nc4cnccc43)cc2)NC(C)=C(C(=O)Nc2ccccn2)C1c1ccccc1Cl (configuration not stated) | 1.9 | – | – | 0.33
